In publication PMC11049977, “Antenna-Biased Odorant Receptor PstrOR17 Mediates Attraction of Phyllotreta striolata to (S)-Cis-Verbenol and (−)-Verbenone” (International Journal of Molecular Sciences, 2024):

Molecular target: T1, PstrOR17 (Phyllotreta striolata, UniProt A0A9N9TEW2)
T1 construct: gene PHYEVI_LOCUS1381; full-length ORF (1182 bp, 393 residues) from antennal cDNA in pUAST.attb; expressed in Drosophila melanogaster ab3A empty neurons under DmelOR22-Gal4; endogenous fly Orco not mentioned for the assay; with Odorant receptor coreceptor (Drosophila melanogaster, endogenous in the ab3A neuron)
T1 sequence (A0A9N9TEW2 1-393): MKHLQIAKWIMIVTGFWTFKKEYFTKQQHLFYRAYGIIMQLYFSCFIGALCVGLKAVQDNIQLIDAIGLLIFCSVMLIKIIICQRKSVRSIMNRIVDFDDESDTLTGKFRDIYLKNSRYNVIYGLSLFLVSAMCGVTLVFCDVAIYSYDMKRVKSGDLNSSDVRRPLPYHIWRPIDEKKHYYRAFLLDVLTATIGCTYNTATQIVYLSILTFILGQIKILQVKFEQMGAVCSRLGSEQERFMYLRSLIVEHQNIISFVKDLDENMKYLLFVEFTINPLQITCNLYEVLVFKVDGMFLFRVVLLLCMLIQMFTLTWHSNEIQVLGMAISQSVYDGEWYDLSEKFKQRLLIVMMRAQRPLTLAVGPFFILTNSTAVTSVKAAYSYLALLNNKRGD
T1 sequence (Q9VNB5 1-486 partner): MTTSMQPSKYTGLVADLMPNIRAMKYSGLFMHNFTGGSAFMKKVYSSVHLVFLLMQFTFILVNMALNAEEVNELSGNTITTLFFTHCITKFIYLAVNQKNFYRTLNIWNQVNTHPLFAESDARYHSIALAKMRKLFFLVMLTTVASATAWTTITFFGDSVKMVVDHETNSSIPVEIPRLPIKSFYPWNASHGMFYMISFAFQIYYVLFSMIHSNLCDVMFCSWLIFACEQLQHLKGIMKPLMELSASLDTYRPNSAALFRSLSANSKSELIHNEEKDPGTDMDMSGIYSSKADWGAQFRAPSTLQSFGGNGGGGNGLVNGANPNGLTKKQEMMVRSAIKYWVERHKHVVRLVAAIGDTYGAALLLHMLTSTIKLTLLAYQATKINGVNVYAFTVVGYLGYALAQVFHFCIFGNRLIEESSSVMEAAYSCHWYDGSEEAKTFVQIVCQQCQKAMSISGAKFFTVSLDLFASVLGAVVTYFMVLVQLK
Test: single sensillum recording, Drosophila empty neuron (ab3A)
Type: cell-based
Details: agonist, odour cartridge 10 μL on filter strip

[1] = 10 μg/μL for profile, dose series 10^-5 to 10 mg/mL

CC1=C[C@H](O)[C@H]2C[C@@H]1C2(C)C [(S)-cis-verbenol]
single sensillum recording, Drosophila empty neuron (ab3A) [1]: PstrOR17 responded to both (−)-verbenone and (S)-cis-verbenol in a dose-dependent manner

CC1=CC(=O)[C@H]2C[C@@H]1C2(C)C [(−)-verbenone]
single sensillum recording, Drosophila empty neuron (ab3A) [1]: PstrOR17 responded to both (−)-verbenone and (S)-cis-verbenol in a dose-dependent manner

C=C1CC[C@H]2C[C@@H]1C2(C)C [(−)-β-pinene]
single sensillum recording, Drosophila empty neuron (ab3A) (10 μg/μL): moderate responses to five other odorants: α-pinene; (−)-β-pinene

CC1=CCC2CC1C2(C)C (stereo not drawn) [α-pinene]
single sensillum recording, Drosophila empty neuron (ab3A) (10 μg/μL): PstrOR17 also conferred moderate responses to five other odorants: α-pinene

CC1=CCC(C(C)C)=CC1 [γ-terpinene]
single sensillum recording, Drosophila empty neuron (ab3A) (10 μg/μL): moderate responses to five other odorants: α-pinene; (−)-β-pinene; γ-terpinene
